Experimental data reported in article PMC9764287, “Multivalent Fucosides Targeting β-Propeller Lectins from Lung Pathogens with Promising Anti-Adhesive Properties” (ACS Chemical Biology, 2022).
“And” between values parts separate entries of the source, which are not always exact repeats. Equal values may be shown once. Read-outs that look alike come from different tables or passages of the source.

Columns and labels:
FleA [1] = target: T1, FleA (Aspergillus fumigatus, UniProt Q4WW81); assay: Isothermal titration calorimetry (ITC); assay type: binding; conditions: for Kd: 20 mM Tris, 100 mM NaCl, pH 8.0; for N stoichiometry FleA ITC: ratio of compound per FleA monomer (six binding sites); for -TΔS (kJ/mol) FleA binding / ΔH (kJ/mol) FleA binding: Table S1, ITC 25 °C
T1 construct: 6xHis (TEV-cleavable) (N, cleaved yes); made in house
From the text: (§1) Due to the time-consuming measurements and the high quantity of protein necessary in some techniques, we selected only the four inhibitors with the largest size (compounds with PEGn=4 and hPG-20) for further biophysical analysis. More in-depth studies were continued by isothermal titration calorimetry (ITC) and bio-layer interferometry (BLI), which confirmed the trends previously seen by FP (Table 2). In the ITC experiments, the fungal lectins bound their monovalent reference with a stoichiometry (N) value around […], which is consistent with the number of high-affinity binding sites per monomer. With the value close to […] obtained for BambL, the reference experiments are indicative of active recombinant proteins and correlate well with previous findings in the literature.[39],[41] […] This calls for a likely mixed chelate-aggregative binding, whose precise architecture cannot be determined based solely on the compound/protein ratio.
(§2) 1.2 I sotherm al ti trati on c al ori m etry
(§3) Protein targets were pl ace d i n t he sample cell at concentrations ranging between 50 an d 8.5 μM at 25 °C. […]
Ta b le S1. Microcalorimetry data relative to Fl e A binding.

BambL [2] = target: T2, BambL (Burkholderia ambifaria, UniProt Q0B4G1); assay: Isothermal titration calorimetry (ITC); assay type: binding; conditions: for Kd: 20 mM Tris, 100 mM NaCl, pH 8.0; for -TΔS (kJ/mol) BambL binding / ΔH (kJ/mol) BambL binding / N BambL binding (Table S3): Table S3, ITC 25 °C; for N BambL binding (Table S3): as printed in SI, one third of the per-trimer N of Table 2
From the text: as §1, §2, §3
Ta b le S3. Microcalorimetry data relative to B am bL binding.

FleA [3] = target: T1, FleA; parameters: method as in PMID 25760594; conditions: SPR experiment; read-out: Kd of binding for FleA; cited from earlier work
BambL [4] = target: T2, BambL; assay: Competitive fluorescence polarization (FP) assay; assay type: binding; conditions: Fuc-FITC probe 6 nM, protein 100 nM, average over two independent experiments, read-out: IC50 (nM) ± SD BambL
From the text: (§4) With the targeted lectins in hand, we could screen the inhibitory properties of the synthesized compounds by a competitive binding assay based on fluorescence polarization (FP). […] In general, results confirmed the power of multivalency as IC50 values improved from the micromolar range for the monosaccharide reference to the nanomolar range for the multivalent counterparts (Table 1).
(§5) 1.1 F l uoresc en c e pol ari z ati on c om peti ti ve assay
(§6) The fluorescen t ligan d Fu c -FI TC (F i g ur e S 1 ) w as pr e par e d f r om com poun d 2a followin g a protocol reported in literature.1 T y pi cal l y , a s t ock s ol uti on of pr ote i n (f i n al con ce n tr ati on 100 n M) an d Fu c -FI TC (final concentration 6 n M) w e r e adde d to 3 -f ol d serial dilution s of testin g compoun ds in dupl i cat e s on a bl ack 9 6 well microtiter plate (CO S T A R TM 96) . […] The starting concentration for the monovalent com poun d w as 3 mM an d 5 -fold dilution s were used in this case. All compon en ts were dissolved in the same buffer (20 mM Tris, 100 mM N aCl , pH 8.0). After addition of the reagents, the microtiter plates were s hak e d f or 1 h at room temperature i n t he dar k . […] A fluorescen ce in ten sity spectral scan of the multivalent compounds alone was also performed to confirm no interference with the analysis. […] The point of inflection was used to determine the IC50 value of each experiment. […]
(§7) Fi gu re S1 . The structure of the fluorescent probe Fu c -FI TC.

SapL1 [5] = target: T3, SapL1 (Scedosporium apiospermum, UniProt A0A084FYP2); assay: Competitive fluorescence polarization (FP) assay; assay type: binding; conditions: read-out: IC50 (nM) ± SD SapL1, Fuc-FITC probe 6 nM, protein 100 nM, average over two independent experiments
From the text: as §4, §5, §6, §7

FleA [6] = target: T1, FleA; assay: Competitive fluorescence polarization (FP) assay; assay type: binding; conditions: Fuc-FITC probe 6 nM, protein 100 nM, average over two independent experiments, read-out: IC50 (nM) ± SD FleA
From the text: as §4, §5, §6, §7

BambL [7] = target: T2, BambL; assay: Bio-layer interferometry (BLI), biotinylated lectin on streptavidin sensor; assay type: binding; conditions: read-out: Kobs (nM) BambL BLI; 25 °C; protein immobilized
From the text: (§8) Applying different techniques to study the mechanism of multivalent binding is always advisable to better understand the process at a molecular level.[44] BLI is a biophysical technique where the target protein can be immobilized on the surface of the sensor, so problems related to aggregation should be eliminated. This technology has in fact been applied to the study of lectin-multivalent glycoconjugate interactions in a reliable, low-cost, and fast way.[45] […] A discrepancy of this nature is not too surprising considering that in the BLI experiment, one of the binding partners is immobilized, so its Kd’s might be better labeled as Kobs. Different techniques measure inherently different properties. It has been pointed out in a recent publication that drastically different outcomes can be obtained from solution to surface experimental approaches and that these variations are highly dependent on the accessibility of the binding motif.[46] The arrangement of glycans and the linker used for immobilization have shown to influence affinity on the glycan array setting. Therefore, it is likely that also the arrangement of a protein on the surface can have a similar effect when the setting is reversed.[46],[47] The difference in affinities between ITC and BLI for the fungal versus the bacterial lectins may relate to their orientation on the surface. The proteins were immobilized to the surface of a streptavidin-coated sensor through biotinylation of their lysine residues. BambL has only one lysine per monomer, opposite to the binding surface, while FleA and SapL1 have several, some of which close to the binding sites. It is plausible that this would influence the binding of the lectins to the sensor and the exposure of their sites. […] In contrast, all binding sites and modalities are accessible in solution during ITC.
(§9) 1.4 B i ol ayer i n terferom etry
(§10) The mixture was incubate d for 30 minutes with stirring. […] Biotinylated protein at 100nM concentrations were loaded on the sensor. […]

SapL1 [8] = target: T3, SapL1; assay: as above; assay type: binding; conditions: read-out: Kobs (nM) SapL1 BLI; 25 °C; protein immobilized
From the text: as §8, §9, §10

FleA [9] = target: T1, FleA; assay: as above; assay type: binding; conditions: 25 °C; protein immobilized; read-out: Kobs (nM) FleA BLI
From the text: as §8, §9, §10

SapL1 [10] = target: T3, SapL1; assay: Isothermal titration calorimetry (ITC); assay type: binding; conditions: for N stoichiometry SapL1 ITC: ratio of compound per SapL1 monomer (six binding sites); for -TΔS (kJ/mol) SapL1 binding / ΔH (kJ/mol) SapL1 binding: Table S2, ITC 25 °C
From the text: as §1, §2, §3
Ta b le S2. Microcalorimetry data relative to S apL1 binding. […]

[11] = test system: adhesion of Af293.1 spores to A549 cells; assay: Adhesion assay of A. fumigatus conidia to lung epithelial cells; assay type: cell-based, Aspergillus fumigatus
Procedure: In our adhesion assay, A549 cells were cultured in a well-plate until a confluent layer was obtained and then challenged with A. fumigatus conidia in the presence or absence of FleA inhibitors. After incubation and washing to remove unbound spores from the cell layer, imaging was performed by confocal microscopy (Figure 4). The detection of fungi was facilitated by the availability of Af293.1, a strain originally derived from a clinical isolate and genetically modified to constitutively express red fluorescent protein.[53] Cell nuclei were stained with Hoechst fluorescent dye for visualization.[54] Cell and spore counts were calculated by ImageJ software and used to express adhesion efficiencies.
Figure 5 Adhesion of Af293.1 to A459. The black bars refer to the conditions where compounds and spores were pre-incubated 1 h prior infection. The white-striped bars refer to the conditions where compounds were added 1 h after infection. *Significant difference to the control (chi-square test, followed by Bonferroni’s multiple comparison test).
[…] Unbound conidia were removed carefully by washin g 4 times with m e di a (D ME M + 10% F BS). […] Fluorescence emission of Hoechst was de te cte d us i n g the 400- 600 nm spectral band and red fluorescence emission of R F P was detected with the 560- 700 n m s pe ctr al ban d. […]

FleA, SapL1, and BambL = target: FleA, SapL1, and BambL; parameters: method as in PMID 24340081, PMID 34373510, PMID 22170069; conditions: range over FleA, read-out: Kd of α-methyl fucose; cited from earlier work

T2 sequence (Q0B4G1 1-87): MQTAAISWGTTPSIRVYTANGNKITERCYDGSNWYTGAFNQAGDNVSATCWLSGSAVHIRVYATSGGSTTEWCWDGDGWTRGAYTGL
T1 sequence (Q4WW81 whole entry): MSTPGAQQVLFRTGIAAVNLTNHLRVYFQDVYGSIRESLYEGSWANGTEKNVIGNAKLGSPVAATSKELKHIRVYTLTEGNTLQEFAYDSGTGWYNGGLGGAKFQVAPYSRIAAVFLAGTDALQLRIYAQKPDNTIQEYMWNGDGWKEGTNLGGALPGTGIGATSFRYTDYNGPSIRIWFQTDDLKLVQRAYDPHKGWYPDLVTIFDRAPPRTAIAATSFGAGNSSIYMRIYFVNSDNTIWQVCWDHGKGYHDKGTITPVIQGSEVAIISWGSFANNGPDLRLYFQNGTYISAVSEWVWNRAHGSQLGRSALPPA
T3 sequence (A0A084FYP2 entry or part of it): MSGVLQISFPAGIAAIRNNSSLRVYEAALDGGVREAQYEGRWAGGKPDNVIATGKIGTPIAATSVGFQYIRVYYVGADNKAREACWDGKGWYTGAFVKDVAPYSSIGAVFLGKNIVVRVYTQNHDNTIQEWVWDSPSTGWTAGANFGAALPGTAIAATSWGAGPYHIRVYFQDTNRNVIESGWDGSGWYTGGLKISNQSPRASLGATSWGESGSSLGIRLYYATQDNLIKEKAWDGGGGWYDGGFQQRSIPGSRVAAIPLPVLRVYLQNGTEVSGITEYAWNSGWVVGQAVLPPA

SMILES | Kd (FleA [1]; 25 °C) [nM] | N stoichiometry FleA ITC (FleA [1]; 25 °C) | -TΔS (kJ/mol) FleA binding (FleA [1]) [kJ/mol] | ΔH (kJ/mol) FleA binding (FleA [1]) [kJ/mol] | Kd (BambL [2]; 25 °C) [nM] | -TΔS (kJ/mol) BambL binding (BambL [2]) [kJ/mol] | ΔH (kJ/mol) BambL binding (BambL [2]) [kJ/mol] | N BambL binding (Table S3) (BambL [2]) | Kd (FleA [3]) [nM] | IC50 (BambL [4]) [nM] | IC50 (FleA [6]) [nM] | N stoichiometry SapL1 ITC (SapL1 [10]; 25 °C) | -TΔS (kJ/mol) SapL1 binding (SapL1 [10]) [kJ/mol] | ΔH (kJ/mol) SapL1 binding (SapL1 [10]) [kJ/mol] | further results
C[C@@H]1O[C@@H](OCCN=[N+]=[N-])[C@@H](O)[C@H](O)[C@@H]1O [2a] | 97600 ± 300 | 4.1 ± 0.02 | 16 ± 4 | -39 ± 4 | 2140 ± 80 | 17 ± 1 | -50 ± 1 | 1.81 ± 0.01 | – | – | – | – | – | – | –
C[C@@H]1OC(O)[C@@H](O)[C@H](O)[C@@H]1O (stereo partly drawn) [L-Fuc] | – | – | – | – | – | – | – | – | 209000 | – | – | – | – | – | –
C[C@@H]1O[C@@H](OCCNC(=O)CCOCCOCCOCCOCCNC(=O)Cc2ccc(SCc3c(CSc4ccc(CC(=O)NCCOCCOCCOCCOCCC(=O)NCCO[C@@H]5O[C@@H](C)[C@@H](O)[C@@H](O)[C@@H]5O)cc4)c(CSc4ccc(CC(=O)NCCOCCOCCOCCOCCC(=O)NCCO[C@@H]5O[C@@H](C)[C@@H](O)[C@@H](O)[C@@H]5O)cc4)c(CSc4ccc(CC(=O)NCCOCCOCCOCCOCCC(=O)NCCO[C@@H]5O[C@@H](C)[C@@H](O)[C@@H](O)[C@@H]5O)cc4)c(CSc4ccc(CC(=O)NCCOCCOCCOCCOCCC(=O)NCCO[C@@H]5O[C@@H](C)[C@@H](O)[C@@H](O)[C@@H]5O)cc4)c3CSc3ccc(CC(=O)NCCOCCOCCOCCOCCC(=O)NCCO[C@@H]4O[C@@H](C)[C@@H](O)[C@@H](O)[C@@H]4O)cc3)cc2)[C@@H](O)[C@H](O)[C@@H]1O [hexa-4] | 115 ± 4 | 0.8 ± 0.02 and 0.8 | 206 ± 6 | -246 ± 6 | 4.7 ± 0.9 | 249 ± 10 | -296 ± 9 | 0.35 ± 0.01 | – | 31 ± 3 | 148 ± 6 | 0.72 ± 0.02 and 0.72 | 155 ± 12 | -199 ± 13 | β affinity enhancement (Kd,mono/Kd,multi) FleA ITC (FleA [1]; 25 °C): 849; β/v affinity enhancement per single sugar FleA ITC (FleA [1]; 25 °C, v = valency): 142; β affinity enhancement (Kd,mono/Kd,multi) BambL ITC (BambL [2]; 25 °C): 455; N stoichiometry BambL ITC (BambL [2]; 25 °C, ratio of compound per BambL trimer (six binding sites)): 1.05; β/v affinity enhancement per single sugar BambL ITC (BambL [2]; 25 °C, v = valency): 76; IC50 (SapL1 [5]): 43 ± 6 nM; Kd (BambL [7]): 1.6 ± 0.1 nM; Kd (SapL1 [8]): 1.2 ± 0.2 nM; Kd (FleA [9]): 4.1 ± 0.1 nM; β affinity enhancement (Kd,mono/Kd,multi) SapL1 ITC (SapL1 [10]; 25 °C): 2735; β/v affinity enhancement per single sugar SapL1 ITC (SapL1 [10]; 25 °C, v = valency): 456; Kd (SapL1 [10]; read-out: Kd (nM) SapL1 ITC, 25 °C, 20 mM Tris, 100 mM NaCl, pH 8.0): 25 nM and 24.9 nM
CO[C@@H]1O[C@@H](C)[C@@H](O)[C@@H](O)[C@@H]1O [α-Me-Fuc, α-methyl fucose, reference compound] | – | – | – | – | – | – | – | – | – | 1400 ± 200 | 111000 | 3.52 ± 0.13 | 27 ± 2 | -63 ± 11 | anti-adhesive effect ([11]; 0.1 mM, spores preincubated with compound, MOI 2, Figure S3): ineffective; concentration needed to elicit any measurable anti-adhesive properties ([11]; control experiment, preincubation): 1 mM; Kd (FleA, SapL1, and BambL): 1000 to 200000 nM
CC(=O)N[C@H]1C(O)O[C@H](CO)[C@@H](O[C@@H]2O[C@@H](C)[C@@H](O)[C@@H](O)[C@@H]2O)[C@@H]1O (stereo partly shown) [αFuc(1–4)GlcNAc] | – | – | – | – | – | – | – | – | 63000 | – | – | – | – | – | –
